Patent US10711007B2, “Selective inhibitors of protein arginine methyltransferase 5 (PRMT5)” (Prelude Therapeutics, Incorporated, priority 2018, dated 2020)

Tests used:
U-87 MG cells = assay: Cell proliferation assay (CCK-8, day 10) in U-87 MG cells; type: cell-based; conditions: Homo sapiens, 240 h, U-87 MG cell line, read-out: Prolif. IC50
Description: Cell Proliferation Assay to Determine IC50 in Granta-519 and U-87 MG Cells
One day before experiment, Granta-519 cells were passaged to a density of 0.5×10^6 cells/ml. U-87 MG cells were trypsinized and 2,000 cells were seeded into 96-well plates and allow to grow overnight. On the day of experiment (day 0), Granta-519 Cells were spun down at 1,500 rpm for 4 min, resuspended in fresh medium to 0.5×10^6 cells/ml and 190 ul of cells were added to 96 well plates. For U-87 MG cells, old medium was removed and replaced with 190 uL fresh medium. Compound working stocks were first diluted at 1:50 with fresh medium in 96 well plate and 10 μL of diluted drugs were added to 96 well plates containing cells and incubated for 3 days. DMSO was used a vehicle control.
One day 3, 50 uL of Granta-519 cells were transferred to a new 96-well plate and 140 uL fresh medium was added. For U-87 MG cells, old medium was removed and replaced with 190 uL fresh medium. Compound working stocks were freshly diluted at 1:50 with medium and 10 μL of diluted drugs were added to cells and grow for 3additional days. The same process was repeated on day 6. Cells were allowed to grow for additional 4 days.
On day 10, 100 uL Granta-519 cells were transferred to a new 96 well plate and 10 μL of Cell Counting Kit-8 (CCK-8, Jojindo, CK04-13) solution was added. For U-87 MG cells, old medium was removed and replaced with 100 uL fresh medium and 10 uL CCK-8 solution was added. Plates were incubated in CO2 incubator for 2 hours (Granta-519 cells) or 30 min (U-87 MG cells) and OD450 values were measured with a microplate reader (iMark microplate reader, Bio-Rad). Percentage of viable cells, relative to DMSO vehicle control, were calculated and plotted in Graphpad Prism ([Inhibitor] vs. normalized response-Variable slope) to determine proliferation IC50 values on day 10.

[1] = test system: sDMA marks (SmD3me2s) in U-87 MG cells; assay: Western blotting for symmetric di-methyl arginine (sDMA) marks in U-87 MG cells; type: cell-based; conditions: Homo sapiens, 72 h; U-87 MG cell line, 3 days
Description: Cell Treatment and Western Blotting for Detecting Symmetric Di-Methyl Arginine (sDMA) Marks
Compound Titration and Cell Culture:
Compounds were dissolved in DMSO to make 10 mM stock and 3-fold series dilutions were further conducted to make working stocks top at 1 mM. Granta-519 cells were maintained in PRMI 1640 (Corning Cellgro, Catalog #: 10-040-CV) supplemented with 10% v/v FBS (GE Healthcare, Catalog #: SH30910.03) and U-87 MG cells were maintained in DMEM (Corning Cellgro, Catalog #: 10-013-CV) with 10% FBS and 2 mM Glutamin (Corning Cellgro, Catalog #25005CV).
To determine enzyme inhibition IC50 values in Granta-519 and U-87 MG cells using Western Blot analysis. One day before experiment, Granta-519 cells were passaged to a density of 0.5×10^6 cells/ml. U-87 MG cells were trypsinized and 4×10^5 cells were seeded into 6-well plates and allow to grow overnight. The next day, Granta-519 cells were spun down at 1,500 rpm for 4 min, resuspend in fresh medium at 0.5×10^6 cells/ml and 3 mL of culture (1.5×10^6 cells) were seeded into 6 well plate. Eight-point, 3-fold serial dilutions of compound working stocks were added to cells (3 ul, 1:1,000 dilution, DMSO concentration was 0.1%; final top concentration at 1 uM) and incubated for 3 days. Cells incubated with DMSO was used as a vehicle control.
Cells were harvested 3 days later, resuspended in 15 uL PBS, lysed in 4% SDS, and homogenized by passing through homogenizer column (Omega Biotek, Catalog #: HCR003). Total protein concentrations were determined by BCA assay (ThermoFisher Scientific, Catalog #: 23225). Lysates were mixed with 5× Laemmli buffer and boiled for 5 min. Forty ug of total protein was separated on SDS-PAGE gels (Bio-Rad, catalog #: 4568083, 4568043), transferred to PVDF membrane, blocked with 5% dry milk (Bio-Rad, Catalog #: 1706404) in TBS with 0.1% v/v Tween 20 (TBST) for 1 hour at room temperature (RT), and incubated with primary antibodies (sDMA: Cell signaling, Catalog #: 13222, 1:3,000; β-Actin: sigma, Catalog #: 1:5,000) in 5% dry milk in TBST at 4° C. overnight. The next day, membranes were washed with TBST, 5×5 min, and incubated with HRP conjugated seconded antibody (GE Healthcare; Catalog #: NA934-1ML, NA931-1ML; 1:5,000) for 2 hours at RT, followed by 5×5 min washes with TBST, and incubation with ECL substrates (Bio-Rad, Catalog #: 1705061, 1705062). Chemiluminescent signal was captured with Fluochem HD2 imager (Proteinsimple). SmD3me2s bands were quantified by ImageJ. Signals were normalized to β-Actin and DMSO control. IC50 values were calculated using Graphpad Prism ([Inhibitor] vs. normalized response-Variable slope).

PRMT5/MEP50 complex = PRMT5/MEP50 complex (Homo sapiens (Human), UniProt O14744); assay: Biochemical assay: PRMT5/MEP50 methylation of histone H4 based AcH4-23, SPA readout; conditions: PRMT5/MEP50 2.5 nM, 300 nM AcH4-23, 1 μM 3H-SAM
Chain of PRMT5/MEP50 complex (O14744 whole entry): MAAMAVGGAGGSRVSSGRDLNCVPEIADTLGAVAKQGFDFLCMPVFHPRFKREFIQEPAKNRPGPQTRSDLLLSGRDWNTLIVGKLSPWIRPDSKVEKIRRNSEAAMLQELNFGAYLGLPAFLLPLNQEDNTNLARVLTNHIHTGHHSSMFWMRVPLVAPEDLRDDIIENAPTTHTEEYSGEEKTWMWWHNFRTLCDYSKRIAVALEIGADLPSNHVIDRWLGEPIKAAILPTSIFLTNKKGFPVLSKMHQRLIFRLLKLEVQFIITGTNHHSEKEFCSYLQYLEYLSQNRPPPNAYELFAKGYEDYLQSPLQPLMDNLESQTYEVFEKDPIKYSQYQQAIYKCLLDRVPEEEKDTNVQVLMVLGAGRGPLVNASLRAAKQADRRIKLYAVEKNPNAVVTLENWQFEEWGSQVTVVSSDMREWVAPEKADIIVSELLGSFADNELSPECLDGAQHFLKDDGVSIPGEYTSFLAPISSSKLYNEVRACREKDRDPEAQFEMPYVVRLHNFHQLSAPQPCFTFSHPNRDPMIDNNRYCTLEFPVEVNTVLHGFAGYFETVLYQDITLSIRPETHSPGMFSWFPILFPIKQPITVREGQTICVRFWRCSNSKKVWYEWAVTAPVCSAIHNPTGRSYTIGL
Chain of PRMT5/MEP50 complex (Q9BQA1 whole entry partner): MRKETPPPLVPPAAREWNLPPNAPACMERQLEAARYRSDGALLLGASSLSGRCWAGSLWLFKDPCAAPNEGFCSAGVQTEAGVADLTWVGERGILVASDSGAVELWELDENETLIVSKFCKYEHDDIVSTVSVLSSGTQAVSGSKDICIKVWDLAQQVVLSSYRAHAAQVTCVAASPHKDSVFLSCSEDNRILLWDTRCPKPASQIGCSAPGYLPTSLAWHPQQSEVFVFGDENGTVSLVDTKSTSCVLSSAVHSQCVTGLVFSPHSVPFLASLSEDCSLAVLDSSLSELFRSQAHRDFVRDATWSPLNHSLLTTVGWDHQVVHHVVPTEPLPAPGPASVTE
Description: Biochemical Assay Protocol
Compounds were solubilized and 3-fold diluted in 100% DMSO. […] Standard reactions were performed in a total volume of 30 μl in assay buffer, with 300 nM histone H4 based AcH4-23 (Anaspec: AS-65002) as substrate. To this was added the PRMT5/MEP50 complex diluted to provide a final assay concentration of 2.5 nM and the compounds were allowed to preincubate for 20 minutes at 37° C. The reaction was initiated by adding S-[3H-methyl]-adenosyl-L-methionine (PerkinElmer: NET155001MC) to final concentration of 1 μM. Following a 30 minutes incubation at 37° C., the reaction was stopped by adding 25 μL of 8M Guanidine HCl. Prepare streptavidin YSI SPA beads (Perkinelmer: RPNQ0012) at 0.3 mg/mL in assay buffer. To each reaction, add 150 μL of SPA beads suspension, and incubated while shaking at room temperature for 30 minutes. The plate was centrifuged at 100×g for 30 second before reading in a scintillation counter. IC50 values were determined by fitting the data to the standard 4 parameters with Hill Slope using GraphPad Prism software.

| Compound | IC50 (U-87 MG cells) [nM] | IC50 [1] [nM] | IC50 (PRMT5/MEP50 complex) [nM] |
| --- | --- | --- | --- |
| Nc1ncnc2c1ccn2[C@@H]1C[C@H]([C@@H]2OCc3cc(Cl)ccc32)[C@@H](O)[C@H]1O [Example 2B, (1R,2S,3R,5S)-3-(4-amino-7H-pyrrolo[2,3-d]pyrimidin-7-yl)-5-((S)-5-chloro-1,3-dihydroisobenzofuran-1-yl)cyclopentane-1,2-diol] | > 1000 | 563 | 31 |
| Nc1ncnc2c1ccn2[C@@H]1O[C@H]([C@@H]2OCc3cc(F)c(F)cc32)[C@@H](O)[C@H]1O [Example 4, (2R,3R,4S,5S)-2-(4-amino-7H-pyrrolo[2,3-d]pyrimidin-7-yl)-5-((R)-5,6-difluoro-1,3-dihydroisobenzofuran-1-yl)tetrahydrofuran-3,4-diol] | 95 | 31 | 1.5 |
| Cc1ncnc2c1ccn2[C@@H]1O[C@H]([C@@H]2OCCc3cc(Cl)ccc32)[C@@H](O)[C@H]1O [Example 22, (2S,3S,4R,5R)-2-((R)-6-chloroisochroman-1-yl)-5-(4-methyl-7H-pyrrolo[2,3-d]pyrimidin-7-yl)tetrahydrofuran-3,4-diol] | 54 | 17.6 | 4.8 |
| Cc1ncnc2c1ccn2[C@@H]1O[C@H]([C@@H]2OCOCc3cc(Cl)ccc32)[C@@H](O)[C@H]1O [Example 55, (2S,3S,4R,5R)-2-((R)-7-chloro-1,5-dihydrobenzo[e][1,3]dioxepin-1-yl)-5-(4-methyl-7H-pyrrolo[2,3-d]pyrimidin-7-yl)tetrahydrofuran-3,4-diol] | 10000 | 4580 | 11.7 |
| Nc1ncnc2c1ccn2[C@@H]1O[C@H]([C@@H]2OCCc3cc(Cl)ccc32)[C@@H](O)[C@H]1O [Example 68, (2R,3R,4S,5S)-2-(4-amino-7H-pyrrolo[2,3-d]pyrimidin-7-yl)-5-((R)-6-chloroisochroman-1-yl)tetrahydrofuran-3,4-diol] | 9.1 | 2.58 | 1.2 |
| CNc1ncnc2c1ccn2[C@@H]1O[C@H]([C@@H]2OCCc3cc(Cl)ccc32)[C@@H](O)[C@H]1O [Example 69, (2S,3S,4R,5R)-2-((R)-6-chloroisochroman-1-yl)-5-(4-(methylamino)-7H-pyrrolo[2,3-d]pyrimidin-7-yl)tetrahydrofuran-3,4-diol] | 181 | 109 | 14.9 |
| Cc1ncnc2c1ccn2[C@@H]1O[C@H]([C@@H]2OCCc3ccc(Cl)cc32)[C@@H](O)[C@H]1O [Example 70, (2S,3S,4R,5R)-2-((R)-7-chloroisochroman-1-yl)-5-(4-methyl-7H-pyrrolo[2,3-d]pyrimidin-7-yl)tetrahydrofuran-3,4-diol] | 458 | 382 | 303 |
| Nc1ncnc2c1ccn2[C@@H]1O[C@H]([C@@H]2OCCc3ccc(Cl)cc32)[C@@H](O)[C@H]1O [Example 71, (2R,3R,4S,5S)-2-(4-amino-7H-pyrrolo[2,3-d]pyrimidin-7-yl)-5-((R)-7-chloroisochroman-1-yl)tetrahydrofuran-3,4-diol] | 73 | 29.7 | 6.2 |
| Nc1ncnc2c1ccn2[C@@H]1O[C@H]([C@@H]2OCCc3c(Cl)cccc32)[C@@H](O)[C@H]1O [Example 72, (2R,3R,4S,5S)-2-(4-amino-7H-pyrrolo[2,3-d]pyrimidin-7-yl)-5-((R)-5-chloroisochroman-1-yl)tetrahydrofuran-3,4-diol] | 78 | – | 2.98 |
| Nc1ncnc2c1ccn2[C@@H]1O[C@H]([C@@H]2OCCc3cc(F)c(F)cc32)[C@@H](O)[C@H]1O [Example 73, (2R,3R,4S,5S)-2-(4-amino-7H-pyrrolo[2,3-d]pyrimidin-7-yl)-5-((R)-6,7-difluoroisochroman-1-yl)tetrahydrofuran-3,4-diol] | 9.1 | – | 1.45 |
| Cc1ncnc2c1ccn2[C@@H]1O[C@H]([C@@H]2OCCc3cc(F)c(F)cc32)[C@@H](O)[C@H]1O [Example 74, (2S,3S,4R,5R)-2-((R)-6,7-difluoroisochroman-1-yl)-5-(4-methyl-7H-pyrrolo[2,3-d]pyrimidin-7-yl)tetrahydrofuran-3,4-diol] | 66 | – | 7.28 |
| Cc1ncnc2c1ccn2[C@@H]1O[C@H]([C@@H]2OCCc3c(Cl)cccc32)[C@@H](O)[C@H]1O [Example 75, (2S,3S,4R,5R)-2-((R)-5-chloroisochroman-1-yl)-5-(4-methyl-7H-pyrrolo[2,3-d]pyrimidin-7-yl)tetrahydrofuran-3,4-diol] | 339 | – | 15.1 |
| Cc1ncnc2c1ccn2[C@@H]1O[C@H]([C@@H]2OCCc3c2ccc(Cl)c3F)[C@@H](O)[C@H]1O [Example 83, (2S,3S,4R,5R)-2-((R)-6-chloro-5-fluoroisochroman-1-yl)-5-(4-methyl-7H-pyrrolo[2,3-d]pyrimidin-7-yl)tetrahydrofuran-3,4-diol] | 377 | 199 | 13.2 |
| Nc1ncnc2c1ccn2[C@@H]1O[C@H]([C@@H]2OCCc3c2ccc(Cl)c3F)[C@@H](O)[C@H]1O [Example 84, (2R,3R,4S,5S)-2-(4-amino-7H-pyrrolo[2,3-d]pyrimidin-7-yl)-5-((R)-6-chloro-5-fluoroisochroman-1-yl)tetrahydrofuran-3,4-diol] | 94 | 27.6 | 4.4 |
| Cc1ncnc2c1c(F)cn2[C@@H]1O[C@H]([C@@H]2OCCc3cc(Cl)ccc32)[C@@H](O)[C@H]1O [Example 85, (2S,3S,4R,5R)-2-((R)-6-chloroisochroman-1-yl)-5-(5-fluoro-4-methyl-7H-pyrrolo[2,3-d]pyrimidin-7-yl)tetrahydrofuran-3,4-diol] | 304 | 173 | 14.7 |
| Nc1ncnc2c1c(F)cn2[C@@H]1O[C@H]([C@@H]2OCCc3cc(Cl)ccc32)[C@@H](O)[C@H]1O [Example 86, (2R,3R,4S,5S)-2-(4-amino-5-fluoro-7H-pyrrolo[2,3-d]pyrimidin-7-yl)-5-((R)-6-chloroisochroman-1-yl)tetrahydrofuran-3,4-diol] | 13 | 5.4 | 2 |
